How the values were obtained:
[1] = target: T1, human mGluR2 receptor (Homo sapiens, UniProt Q14416); assay: [35S]GTPγS binding assay (GTPγS-PAM): positive allosteric modulation in presence of glutamate at EC25, membranes from transfected CHO cells; assay type: biochemical; settings: in presence of mGluR2 agonist glutamate at predetermined EC25 concentration, averages of duplicate values of 11-concentration response curves, read-out: GTPgS - hR2 PAM pEC50 (converted)
T1 construct: expressed in transfected cells; host or cells: CHO cells (membrane preparation)
T1 sequence (Q14416 19-872): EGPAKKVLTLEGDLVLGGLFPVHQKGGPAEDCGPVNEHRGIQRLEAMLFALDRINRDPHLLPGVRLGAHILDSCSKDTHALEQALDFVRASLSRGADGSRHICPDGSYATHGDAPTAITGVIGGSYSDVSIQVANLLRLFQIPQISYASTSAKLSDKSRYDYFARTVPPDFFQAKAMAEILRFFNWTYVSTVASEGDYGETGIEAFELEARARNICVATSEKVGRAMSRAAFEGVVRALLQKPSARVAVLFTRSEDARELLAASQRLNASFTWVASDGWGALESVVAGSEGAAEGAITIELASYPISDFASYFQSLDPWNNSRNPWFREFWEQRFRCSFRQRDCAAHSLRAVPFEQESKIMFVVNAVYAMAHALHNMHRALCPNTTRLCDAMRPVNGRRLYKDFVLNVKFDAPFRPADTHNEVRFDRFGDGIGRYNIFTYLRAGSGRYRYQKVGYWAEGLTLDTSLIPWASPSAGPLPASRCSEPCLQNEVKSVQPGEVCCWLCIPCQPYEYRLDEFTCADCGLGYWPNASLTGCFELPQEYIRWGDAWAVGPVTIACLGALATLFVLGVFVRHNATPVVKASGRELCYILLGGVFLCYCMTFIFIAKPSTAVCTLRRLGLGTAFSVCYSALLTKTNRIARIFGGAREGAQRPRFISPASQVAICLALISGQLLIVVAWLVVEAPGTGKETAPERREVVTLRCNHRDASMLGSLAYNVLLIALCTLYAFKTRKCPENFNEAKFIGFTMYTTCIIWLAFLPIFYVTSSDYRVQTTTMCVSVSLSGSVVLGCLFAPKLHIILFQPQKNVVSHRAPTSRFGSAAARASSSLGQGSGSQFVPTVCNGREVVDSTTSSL
In short: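 Membranes came from butyrate-stimulated CHO cells expressing human mGluR2, used at 15 μg/well in HEPES pH 7.4 with 100 mM NaCl, 3 mM MgCl2, 50 μM GDP and saponin. Compound (0.3 nM-50 μM, 11 concentrations) plus glutamate at EC25 was preincubated 30 min at 30° C., then 0.1 nM [35S]GTPγS was added for 30 min. Filter-bound radioactivity was counted, nonspecific binding was taken with 10 μM GTP, and curves were fitted by four-parameter logistic.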

EC50 [1] [nM]	melting point [°C]	Compound
39.8	139	N#Cc1c(N2CCC(c3ccccc3)CC2)ccn(Cc2ccc(OC(F)(F)F)cc2)c1=O [4-062]
1580	169	COc1ccc2c(c1)C1CCCN(c3ccn(CCC(C)C)c(=O)c3C#N)C1CC2 (stereo not drawn) [5-035]
316	111	CC(C)CCn1ccc(N2CCc3c(n(C)c4ccc(F)cc34)C2)c(C#N)c1=O [5-040]
6310	134	CC(C)CCn1ccc(N2CCCc3ccccc32)c(C#N)c1=O [5-031]
1000	242	CN(Cc1cccc(F)c1)C1CCN(c2ccn(Cc3ccc(F)cc3)c(=O)c2C#N)CC1 [4-057]
1260	113	CC(C)CCn1ccc(N2CCC(N(C)Cc3ccc(F)cc3)CC2)c(C#N)c1=O [4-027]
79.4	100	CC(C)CCn1ccc(N2CCC(CCOc3ccc(F)cc3)CC2)c(C#N)c1=O [4-019]
398	214	CC(C)CCn1ccc(N2CCC(c3nc4ccccc4o3)CC2)c(C#N)c1=O [4-038]
251	166	N#Cc1c(-c2ccc3[nH]ccc3c2)ccn(Cc2ccc(OC(F)(F)F)cc2)c1=O [5-051]
251	102	CC(C)CCn1ccc(N2CC(OCc3ccc(OC(F)(F)F)cc3)C2)c(C#N)c1=O [5-008]
	128	N#Cc1c(N2CCC(c3ccccc3)CC2)ccn(CC2CC2)c1=O [4-047, 3-cyano-1-cyclopropylmethyl-4-(4-phenyl-piperidin-1-yl)-pyridine-2(1H)-one]
100		CC(C)CCn1ccc(N2CCC(Cc3ccccc3)CC2)c(C#N)c1=O [4-015]
316		Cc1c(-c2ccn(CCC(C)C)c(=O)c2C#N)cnn1-c1ccccc1 [5-027]
3980		CCCCn1ccc(N2CCC(c3cccnc3)CC2)c(C#N)c1=O [4-002]
2000		CC(C)CCn1ccc(N2CCCC(c3ccccc3)C2)c(C#N)c1=O (stereo not drawn) [4-013]
31.6		N#Cc1c(N2CCC(c3ccccc3)CC2)ccn(CCOc2ccccc2)c1=O [4-066]
	234	CC(C)CCn1ccc(-n2ncc3ccccc32)c(C#N)c1=O [5-029]
398		CC(C)CCn1ccc(N2CCC3(CCN(c4ncccn4)CC3)CC2)c(C#N)c1=O [5-034]
251		CC(C)CCn1ccc(-c2ccc3[nH]ccc3c2)c(C#N)c1=O [5-016]
5010		CC(C)CCn1ccc(N2CCCC(Nc3ccccc3)C2)c(C#N)c1=O (stereo not drawn) [4-023]

Further lines, the molecule ahead of its results:

Compound	EC50 [1] [nM]	melting point [°C]
CC(C)CCn1ccc(N2CCN(Cc3ccc(OC(F)(F)F)c(Cl)c3)CC2)c(C#N)c1=O [2-022]	158	256
CC(=O)Nc1ccc(-c2ccn(CCC(C)C)c(=O)c2C#N)cc1 [1-176]	5010	198
CC(C)CCn1ccc(OCc2ccc(CN3CCOCC3)cc2)c(C#N)c1=O [1-292]	1260	154
COc1ccc(Oc2ccn(CCC(C)C)c(=O)c2C#N)cc1 [1-282]	794	153
CC(C)CCn1ccc(OCc2ccccc2)c(C#N)c1=O [1-275]	1260	174
CCCn1ccc(-c2cccs2)c(C#N)c1=O [1-050]		135
CC(C)CCn1ccc(-c2ccccc2)c(C#N)c1=O [1-084]		142
CN(c1ccn(Cc2ccc(OC(F)(F)F)cc2)c(=O)c1C#N)C1CCN(Cc2ccccc2)CC1 [3-013]	3980	211
CC(C)CCn1ccc(OCCN(C)Cc2cccc(F)c2)c(C#N)c1=O [1-293]	2510	209
CC(C)CCn1ccc(-c2ccc(NCC#N)cc2)c(C#N)c1=O [1-186]	794	269
N#Cc1c(-c2ccc(OC(F)(F)F)cc2)ccn(CC2CCCC2)c1=O [1-007]	398	159
CC(C)CCn1ccc(N2CCN(c3nc4ccccc4o3)CC2)c(C#N)c1=O [2-035]	1000	288
CC(C)CCn1ccc(-c2ccc(NCc3cccc(C#N)c3)cc2)c(C#N)c1=O [1-204]	25.1	157
CCCC(C)n1ccc(-c2cccs2)c(C#N)c1=O (stereo not drawn) [1-079]	5010	103
N#Cc1c(-c2ccccc2)ccn(CC2CCCCC2)c1=O [1-009]	1580	149
CC(C)CCn1ccc(-c2ccc(OCC(F)F)c(Cl)c2)c(C#N)c1=O [1-122]	1000	131
CC(C)CCn1ccc(-c2ccc(N3CC(C)OC(C)C3)cc2)c(C#N)c1=O (stereo not drawn) [1-227]	501	162
CC(C)CCn1ccc(OCCOCc2ccccc2)c(C#N)c1=O [1-281]		83
CC(C)CCn1ccc(-c2ccc(CCCO)cc2)c(C#N)c1=O [1-095, 3-cyano-4-(4-hydroxypropylphenyl)-1-(3-methylbutyl)pyridine-2(1H)-one]	631	85

Compound	EC50 [1] [nM]	melting point [°C]
CC(C)CCn1ccc(-c2ccc(OCc3ccc(F)cc3)cc2)c(C#N)c1=O [1-147]	79.4	146
CCCCn1ccc(-c2ccc(N3CCCCC3)cc2)c(C#N)c1=O [1-058]	316	122
N#Cc1c(-c2ccc(Oc3ccccc3)cc2)ccn(Cc2ccc(OC(F)(F)F)cc2)c1=O [1-041]	251	155
CC(C)CCn1ccc(-c2ccc(N3CCOc4ccccc43)cc2)c(C#N)c1=O [1-228]	79.4	148
CC(C)CCn1ccc(-c2ccc(OC(F)(F)F)cc2)c(C#N)c1=O [1-120]	501	122
CC(C)CCn1ccc(OCc2cccc(OC(F)(F)F)c2)c(C#N)c1=O [1-279]	398	116
COc1cc(-c2ccn(CCC(C)C)c(=O)c2C#N)ccc1N1CCOCC1 [1-225]	2000	151
N#Cc1c(-c2cccs2)ccn(CC2CCCCC2)c1=O [1-008]	251	148
CC(C)CCn1ccc(-c2ccc(NCc3ccc(F)cc3)cc2)c(C#N)c1=O [1-200]	79.4	162
COc1ccc(-c2ccn(CC3CCC(C)CC3)c(=O)c2C#N)cc1 (stereo not drawn) [1-013]	126	128
CC(=O)NCc1cccc(-c2ccn(CCC(C)C)c(=O)c2C#N)c1 [1-178]		157
COc1ccc(COc2ccc(-c3ccn(CCC(C)C)c(=O)c3C#N)cc2)cc1 [1-145]	39.8	212
Cc1ccc(Cn2ccc(-c3cccs3)c(C#N)c2=O)cc1 [1-019]	794	118
CC(C)CCn1ccc(-c2ccc(NCCC3(C)OCCO3)cc2)c(C#N)c1=O [1-192]	501	119
COCc1ccc(-c2ccn(CCC(C)C)c(=O)c2C#N)cc1 [1-103, 3-cyano-4-(4-methoxymethylphenyl)-1-(3-methylbutyl)pyridine-2(1H)-one]	2000	91
CC(C)CCn1ccc(-c2ccc(CCC(=O)O)cc2)c(C#N)c1=O [1-240]		169
CNC(=O)COc1ccc(-c2ccn(CCC(C)C)c(=O)c2C#N)cc1 [1-127]		156
CC(C)CCn1ccc(-c2ccc(CO)cc2)c(C#N)c1=O [1-098]		145
CC(C)CCn1ccc(OCCN2CCN(c3ccccn3)CC2)c(C#N)c1=O [2-036]		159

Compound	EC50 [1] [nM]	melting point [°C]
CC(C)CCn1ccc(-c2ccc(CN3CCOCC3)cc2)c(C#N)c1=O [1-229]		148
CC(C)CCn1ccc(-c2ccc(C(=O)NCc3ccncc3)cc2)c(C#N)c1=O [1-213]		96
COC1CCN(c2ccc(-c3ccn(CCC(C)C)c(=O)c3C#N)cc2)CC1 [1-221]	398	
CC(C)CCn1ccc(-c2ccco2)c(C#N)c1=O [1-081]	6310	
CCCCn1ccc(N2CCN(c3nccc(NCC)n3)CC2)c(C#N)c1=O [2-008]	1580	
CC(C)CCn1ccc(N2CCN(Cc3ccc4c(c3)OCO4)CC2)c(C#N)c1=O [2-016]	631	
CCCCn1ccc(N2CCN(c3ccccn3)CC2)c(C#N)c1=O [2-004]	2000	
CC(=O)Nc1ccc(-c2ccn(CCC(C)C)c(=O)c2C#N)cc1F [1-201]	3980	
CCCCn1ccc(-c2cccc(Oc3ccncc3C(F)(F)F)c2)c(C#N)c1=O [1-069]	2510	
CC(C)CCn1ccc(N2CCN(Cc3cccc(C(F)(F)F)c3)CC2)c(C#N)c1=O [2-014]	794	
CC(C)CCn1ccc(-c2ccc(Cn3ccnc3)cc2)c(C#N)c1=O [1-248]	3160	
CC(C)CCn1ccc(-c2ccc(-n3ccnc3)cc2)c(C#N)c1=O [1-235]		151
CC(C)CCn1ccc(-c2ccc(N)cc2)c(C#N)c1=O [1-170]	794	
CC(C)CCn1ccc(-c2ccc(CN(C)Cc3ccc(F)cc3)cc2)c(C#N)c1=O [1-197]	251	
N#Cc1c(-c2ccccc2)ccn(CCCc2ccccc2)c1=O [1-053]	5010	
CC(C)CCn1ccc(OCc2ccc(OCc3ccccc3)cc2)c(C#N)c1=O [1-289]	79.4	
CC(C)CCn1ccc(-c2ccc(Oc3ccccc3)cc2)c(C#N)c1=O [1-140]	39.8	
CCCCn1ccc(N2CCN(c3cnc(N4CCOCC4)nc3)CC2)c(C#N)c1=O [2-009]	6310	
COc1cccc(CCc2ccn(CCC(C)C)c(=O)c2C#N)c1 [1-264]	1580	
